Tests used:
[1] = system: DSS induced intestinal injury; experiment: DSS induced intestinal injury (survival, colon length, permeability, histology); type: in vivo, mouse; settings: for susceptibility to DSS (mortality): antibiotic treated mice, intrarectal administration every other day from one day prior to DSS
[2] = system: influenza A virus; type: in vivo, mouse
[3] = system: C. albicans; experiment: Depletion of intestinal C. albicans with fluconazole in antibiotic cocktail treated mice; type: in vivo, mouse; settings: C. albicans mono-colonized mice, 10 days after adding fluconazole to antibiotic-supplemented drinking water
[4] = system: C. albicans; settings: mouse, in vivo
[5] = system: C. albicans; settings: mouse, in vivo; remark: listed apart in the source
[6] = system: allergic airway inflammation; experiment: House dust mite airway reactivity and inflammation; type: in vivo, mouse; settings: colonized mice, colonization eradicated with fluconazole
Description: Mice were anesthetized with ketamine/xylazine and hung by their front incisors on an angled stand. 100 μg house dust mite extract (Greer Laboratories) in 40 μL sterile saline was administered intratracheally. 10 days later, mice were challenged with the same amount of house dust mite extract. 48 hours after the second intratracheal challenge, airway resistance in response to inhaled methacholine (100 mg/mL) was measured using FlexiVent (SCIREQ). Saline perfused lungs were minced and digested with collagenase D (1 mg/mL) and DNAse (0.1 mg/mL) in DMEM media supplemented with 10% fetal bovine serum, 1% L-glutamine, 10 mM HEPES, 1% penicillin-streptomycin (Cellgro) for 30 minutes at 37° C. with gentle shaking (200 rpm). The tissue digest was then passed through a 70 μm filter to obtain single cell suspensions.

[7] = system: Th17 CD4+ T cells and circulating neutrophils; experiment: Systemic immune cell analysis (tetramer staining, cytokine production, IL-17RC, reactive oxygen) in colonized mice; settings: fluconazole treated colonized mice
Description: Fluorophore- or biotin-conjugated antibodies used mouse cell analysis are as follows: anti-CD4 (GK1.5, eBioscience), anti-CD8a (53-6.7, eBioscience), anti-CD11b (M1/70, Biolegend), anti-CD11c (N418, Biolegend), anti-F4/80 (BM8, eBioscience), anti-B220 (RA3-6B2, Biolegend), anti-CD44 (IM7, Biolegend), anti-CD45 (30F11, invitrogen), anti-Ly6G (1A8, BD bioscience), anti-Ly6C (HK1.4, Biolegend), anti-Gr1 (RB6-8C5, eBioscience), anti-IL-17RC (polyclonal IgG, R&D Systems), anti-FOXP3 (FJK-16S, eBioscience), anti-RORγt (Q31-378, BD bioscience), anti-T-bet (4B10, Biolegend), anti-IFN-γ (XMG1.2, eBioscience), anti-IL17A (TC 11-18H10.1, Biolegend), anti-IL17F (9D3.1C8, Biolegend). Fluorophore-conjugated antibodies were used for human cell analysis are as follows: anti-CD4 (OKT4, eBioscience), anti-CD15 (H198, invitrogen), anti-CD16 (3G8, Biolegend), anti-IL-17A (eBio64DEC17, eBioscience), anti-IL17F (O33-782, BD Bioscience), anti-IL17RC (309822, R&D Systems) with staining in the presence of Human Fc block (BD Bioscience). […] Single cell suspensions from spleen and peripheral lymph nodes were stained with APC conjugated I-Ab:2W1S55-68 tetramer at room temperature for 60 minutes, and enriched using anti-APC antibody conjugated magnetic beads (Militenyi Biotec) as described (Moon et al., Immunity 27:203-213 (2007)). Samples were acquired using an FACSCanto (BD) cytometer and analyzed using FlowJo software (Tree Star).

[8] = system: NF-κB; experiment: RAW-Blue stimulation and quantification of NF-κB activity; type: cell-based, murine; settings: 500 μg/mL
Description: RAW-Blue cells (InvivoGen) cells are derived from the murine RAW 264.7 macrophages with chromosomal integration of a secreted embryonic alkaline phosphatase reporter construct induced by NF-κB. 5×10^4 RAW-Blue cells were seeded 24 hours prior to addition of the indicated blocking antibody. One hour thereafter, mannan (Sigma) was added at a final concentration of 500 μg/mL. Supernatants were collected after 24 hours to quantify NF-κB activity by colorimetric assay using QUANTI-Blue reagent (InvivoGen).

[9] = antibiotic treated mice, intrarectal administration

For OC(Cn1cncn1)(Cn1cncn1)c1ccc(F)cc1F [fluconazole], the “survival and time-to-death after DSS challenge” value ([1]; mouse, in vivo) was “efficiently abolished the improved survival and delayed time-to-death”, the “protection against influenza A” value ([2]; mouse, in vivo) was “similarly overturned” and the “recoverable fungi in the feces” value [3] was “rapidly declined to undetectable levels”. For the same compound, the “fungal pathogen burden in the kidney after intravenous infection” value [4] was “significantly increased fungal pathogen burden in the kidney”, the “C. albicans intestinal colonization” value [5] was “efficiently eliminates C. albicans intestinal colonization” and the “accumulation of RORγt+ and IL-17 producing CD4+ T cells in the lungs” value [6] was “efficiently overturned”. The airway responsiveness [6] was “efficiently overturned”, the “IL-17RC expression by circulating leukocyte and neutrophils” value [7] was “similarly overturned” and the “RORγt expression by I-Ab:2W1S specific CD4+ T cells” value [7] was “reduced to background levels”. The “expansion of circulating neutrophils” value [7] was “similarly overturned”, the “neutrophil production of reactive oxygen species” value [7] was “similarly overturned” and the “number of CD4+ T cells with commensal C. albicans I-Ab:2W1S specificity” value [7] was “reduced to background levels”. The “IL-17A and IL-17F production by spleen and lymph node CD4+ T cells” value ([7]; heat-killed C. albicans stimulation) was “similarly overturned”.

For curdlan, the “susceptibility to DSS (mortality)” value [1] was “failed to improve mortality”.

For mannan, the “susceptibility to DSS (mortality)” value [1] was “mitigated”, the “survival and accumulation of protective immune cells” value [2, 9] was “restored to levels comparable to C. albicans colonized controls” and the “susceptibility to influenza A virus infection” value [2, 9] was “mitigated”. For the same compound, the “mannan stimulated cell activation” value ([8]; with antibody blockade against TLR2) was “not significantly impacted”, the “mannan stimulated cell activation” value ([8]; with antibody blockade against dectin-2) was “not significantly impacted” and the “mannan stimulated cell activation” value ([8]; with antibody blockade against the mannose receptor) was “not significantly impacted”. The “mannan induced NF-κB” value ([8]; with neutralization of TLR4) was “significantly reduced” and the “mannan induced NF-κB” value ([8]; with neutralization of dectin-1) was “significantly reduced”.
